From patent US20060063162A1, “Biological marker for inflammation” (priority 2004, published 2006)

Columns and labels:
Assay type in all cases: cell-based, human
[1] = test system: PSG expression in coronary arterial smooth muscle cells; assay: Microarray analysis of PSG gene expression in coronary artery smooth muscle cells after atherogenic stimuli; conditions: for PSG 2 expression / PSG6 expression / PSG1 expression response: SMCs from coronary artery; for PSG expression: coronary arterial smooth muscle cells, after treatment
From the text: (§1) Vein and artery respond differently to atherogenic lesion under different conditions. […] However, venous bypass grafts can develop accelerated atherosclerosis in vein graft disease for patients after bypass surgery. […] This could possibly be explained by the different roles of endothelial and smooth muscle cells in the development of atherosclerosis. Endothelial cells (EC) are critical in the initiation of atherosclerosis, while smooth muscle cells (SMC) are closely related to the evolution of the atheroma. The global gene expression responses to various atherogenic stimulations between human venous and arterial cells have been determined to identify genes that may contribute to different susceptibilities to atherosclerosis.
(§2) When gene expression of untreated saphenous vein endothelial cells (SVEC) and coronary artery endothelial cells (CAEC) were compared by microarray analysis, five isoforms (PSG1, PSG3, PSG6, PSG7 and PSG9) out of 9 isoforms in the arrays were higher (>1.5 fold and P<0.005) in SVEC than CAEC. In untreated saphenous vein smooth muscle cells (SVSM) and coronary artery smooth muscle cells (CASM), all 9 isoforms of PSGs in the arrays are expressed higher in SVSM than CASM (See Table 1). It is unlikely a false positive result from arrays, since the result was obtained from 4 separate primary cultures from two-donors and more than 5 microarray data sets, and multiple PSG isoforms had similar changes. […] In basal state, PSG expression is higher in vein than artery.
Oxidized LDL (OxLDL), a key atherogenic factor, pro-inflammatory cytokines TNFα and IL1β, as well as cytokines regulating cell proliferation, differentiation and migration like PDGF and TGFβ all up-regulate PSG expression in coronary arterial smooth muscle cells.

[2] = test system: PSG expression in SMCs from saphenous vein; assay: Microarray analysis of PSG gene expression in saphenous vein smooth muscle cells after atherogenic stimuli
From the text: as §1, §2
The gene expression of PSG isoforms is quite different between the two SMCs. In SMCs from saphenous vein, TGFβ and TNFα down-regulate the expression of PSG1. TGFβ also down-regulates PSG9.

[3] = test system: PSG expression in endothelial cells from artery; assay: Microarray analysis of PSG gene expression in coronary artery endothelial cells after atherogenic stimuli; conditions: after treatment
[4] = test system: PSG expression in endothelial cells from vein; assay: Microarray analysis of PSG gene expression in saphenous vein endothelial cells after atherogenic stimuli; conditions: after treatment
From the text: as §1
When gene expression of untreated saphenous vein endothelial cells (SVEC) and coronary artery endothelial cells (CAEC) were compared by microarray analysis, five isoforms (PSG1, PSG3, PSG6, PSG7 and PSG9) out of 9 isoforms in the arrays were higher (>1.5 fold and P<0.005) in SVEC than CAEC. In untreated saphenous vein smooth muscle cells (SVSM) and coronary artery smooth muscle cells (CASM), all 9 isoforms of PSGs in the arrays are expressed higher in SVSM than CASM (See Table 1). […]

Substance | PSG 2 expression [1] | PSG6 expression [1] | PSG expression [1] | PSG1 expression [2] | PSG expression [3] | PSG expression [4] | PSG1 expression response [1] | PSG9 expression [2]
PDGF | up-regulated | up-regulated | up-regulate | – | – | – | – | –
TNFα | up-regulated | up-regulated | up-regulate | down-regulate | No significant change | No significant change | – | –
IL1β: pro-inflammatory cytokine | up-regulated | up-regulated | up-regulate | – | No significant change | No significant change | opposite responses | –
TGFβ | up-regulated | up-regulated | up-regulate | down-regulate | – | – | opposite responses | down-regulates
